The nature of data set [1]: Selectivity index, ratio of CC50 for cytotoxicity against African green monkey Vero E6 cells infected with Heartland virus assessed as reduction in cell viability to EC90 for antiviral activity against Heartland virus infected in African green monkey Vero E6 cells assessed as reduction in viral yield. It is filed as toxicity, cell-based, Vero C1008.
The nature of data set [2]: Toxicity in BALB/c mouse infected with influenza A/Ca/04/09 (H1N1) assessed as mortality at 300 mg/kg, ip measured every day for 6 days. It is filed as organism-based. Conditions: in vivo, time 6 day, read-out: Activity.
Data set [3] is described as follows: Selectivity index, ratio of CC50 for cytotoxicity against African green monkey Vero cells infected with Pichinde virus assessed as reduction in cell viability by visual analysis to EC50 for antiviral activity against Pichinde virus infected in African green monkey Vero cells assessed as reduction in viral replication by visual analysis. The class given is toxicity, cell-based. Conditions: read-out: Ratio CC50/EC50.

The nature of data set [4]: Selectivity index, ratio of CC50 for cytotoxicity against dog MDCK cells infected with Influenza A virus H3N2 assessed as reduction in cell viability by neutral red dye based analysis to EC50 for antiviral activity against Influenza A virus H3N2 infected in dog MDCK cells assessed as inhibition of viral replication by neutral red dye based analysis. The class given is toxicity. Conditions: read-out: Ratio CC50/EC50.

The next data set relates to Sudan ebolavirus. Nature of the data set: Antiviral activity against SUDV infected in human HeLa cells assessed as reduction in viral cytopathic effect. The class given is functional, organism-based.
The subject of data set [5] is Middle East respiratory syndrome-related coronavirus. Nature of the data set: Antiviral activity against MERS-CoV infected in vervet monkey MA-104 cells assessed as reduction in virus-induced cytopathic effect measured after 15 to 30 mins by neutral red dye based assay. Conditions: MA104. It is filed as functional, organism-based. In general terms: Cytopathic effects are the visible damage that an infection or toxin causes in cultured cells.

The next data set has as its system Marburgvirus. Nature of the data set: Antiviral activity against Marburg virus infected in human HeLa cells assessed as reduction in viral cytopathic effect. It is filed as functional, organism-based. Conditions: Orthomarburgvirus.

The source of these data is ChEMBL document CHEMBL5257097, “An Isomer of Galidesivir That Potently Inhibits Influenza Viruses and Members of the Bunyavirales Order” (ACS Med Chem Lett, 2023).

The structures appear in SMILES notation.

What is called EC50 is the concentration giving half of the maximal effect.

As to `Nc1ncnn2c([C@@H]3N[C@H](CO)[C@@H](O)[C@H]3O)ccc12`, the selectivity ratio in data set [1] was 97; in data set [3], 42; in data set [4] it was 44. For the same compound, the mortality at 144 h in data set [2] was 100%.
For `Nc1ncnc2c([C@@H]3N[C@H](CO)[C@@H](O)[C@H]3O)c[nH]c12` [GALIDESIVIR], the figures for the EC50 (in the data set with Sudan ebolavirus; in data set [5]; in the data set with Marburgvirus) were 3000 nM, 36000 nM and 3000 nM, respectively.
